Source: patent publication US9867795B2, “Nitrated lipids and methods of making and using thereof” (The UAB Research Foundation, priority 2004, dated 2018)
Where “and” joins values, the source holds several entries; their conditions need not be identical. Equal entries are not always repeated. Entries after “also recorded” stand apart in the source; their conditions may differ.

Key:
[1] = system: 3T3-L1 adipocytes; experiment: [^3H]-2-Deoxy-D-glucose uptake assay in differentiated 3T3-L1 adipocytes; type: cell-based; conditions: test compounds for 2 days; LNO2 1-10 μM
Method: [^3H]-2-Deoxy-D-glucose Uptake Assay in Differentiated 3T3-L1 Adipocyte. [^3H]-2-Deoxy-D-glucose uptake assay as previously described (19) 3T3-L1 preadipocytes were grown in 24-well tissue culture plates, 2-day postconfluent preadipocytes were treated by 10 μg/ml insulin (Sigma), 1 μM dexamethasone (Sigma), and 0.5 mM 3-isobutyl-1-methylxanthine (Sigma) in DMEM containing 10% FBS for two days, then cells were kept in 10 μg/ml insulin also in DMEM containing 10% FBS for 6 days (changed medium every three days). Eight days after induction of adipogenesis, test compounds in DMEM containing 10% FBS were added for an additional 2 days (changed medium every day) and PPARγ-specific antagonist GW9662 were pretreated 1 h before other additions. After two rinses with serum-free DMEM, cells were incubated for 3 h in serum-free DMEM and rinsed at room temperature three times with freshly prepared KRPH buffer (5 mM phosphate buffer, 20 mM HEPES, 1 mM MgSO4, 1 mM CaCl2, 136 mM NaCl, 4.7 mM KCl, pH 7.4). The buffer was replaced with 1 μCi/ml of [^3H]-2-deoxy-D-glucose in KRPH buffer for 10 min at room temperature. The treated cells were rinsed carefully three times with cold PBS, lysed overnight in 0.8N NaOH (0.4 ml/well), and neutralized with […] of 12N HCl. Lysate (360 μl) was added to 4 ml Scinti-Safe Plus TM 50% in a scintillation vial, and the vials were mixed and counted.
[^3H]-2-Deoxy-D-glucose uptake assay in differentiated 3T3-L1 adipocytes. [^3H]-2-deoxy-D-glucose uptake was analyzed as previously (23). […] Cells were then rinsed three times with cold PBS, lysed overnight in 0.8 N NaOH (0.4 ml/well), neutralized with 26.6 μl of 12 N HCl and 360 μl of lysate was added into 4 ml Scinti-Safe Plus™ 50% for radioactivity determination by liquid scintillation counting.

[2] = LNO2 and OA-NO2 decay in phosphate buffer; type: physicochemical; conditions: 3 μM, 100 mM phosphate buffer, pH 7.4, 37° C.
Method: LNO2 and OA-NO2 decay. […] During the two hour incubation, aliquots were removed and analyzed for LNO2 and OA-NO2 content. […] Non-decayed LNO2 and OA-NO2 were quantitated via HPLC ESI-MS/MS as described above.

[3] = system: 3T3-L1 preadipocytes; conditions: for 3T3-L1 preadipocyte differentiation induced: two weeks, oil red O, LNO2 3 μM, OA-NO2 1 μM
[4] = Storage stability in CH3OH under argon at −80° C.; type: physicochemical; conditions: in CH3OH/methanol under argon at −80° C.
Method: LNO2 synthesis. Linoleic acid/HgCl2/phenylselenium bromide/NaNO2 (1:1.3:1:1, mol/mol) were combined in THF/acetonitrile (1:1, v/v) with a final concentration of 0.15 M linoleic acid. Care was taken to use anhydrous solvents, dry glassware and reagents that had been dried in vacuo over phosphorus pentoxide. The reaction mixture was stirred (4 h, 25° C.) followed by centrifugation to sediment the precipitate. The supernatant was recovered, the solvent evaporated in vacuo, the product mixture redissolved in THF (original volume) and the temperature reduced to 0° C. A 10-fold molar excess of H2O2 was slowly added with stirring to the mixture then allowed to rest in an ice bath for 20 min followed by a gradual warming to room temp (45 min). The product mixture was extracted with equal parts saturated NaCl and diethyl ether, the organic phase collected, the solvent removed in vacuo and the lipid products were resolvated in CH2Cl2/CH3OH (4:1, v/v). […] Under these conditions, purified nitrated linoleic acid is stable for >3 months. Large scale purification of the individual positional isomers was performed by preparative HPLC using a 250×21.2 mm C18 Phenomenex Luna column (5 μm particle size). […]

## 9- and 10-nitro-9-cis-octadecenoic acid [OA-NO2]
[1]
  [^3H]-2-deoxy-D-glucose uptake: induced an increase; also recorded: induced significant increases in glucose uptake
[2]
  decay after 2 hr: only minimal decay
  share degraded after 2 hr: 25%
[3]
  3T3-L1 preadipocyte differentiation induced: ~60%
[4]
  time stable on storage: > 3 months

## 10-nitro-9,12-octadecadienoic acid and 12-nitro-9,12-octadecadienoic acid [LNO2]
[1]
  [^3H]-2-deoxy-D-glucose uptake: dose-dependent increase in glucose uptake; also recorded: greater than that observed for equimolar 15-deoxy-PGJ2, equivalent to Rosiglitazone; also recorded: paralleled
[2]
  share degraded after 2 hr: ~80%
[3]; immunoblot of cell lysate
  expression of adipocyte markers (PPARγ2 and aP2): resulted in expression of specific adipocyte markers
[3]
  3T3-L1 preadipocyte differentiation induced: > 30% and ~30%
[4]
  time stable on storage: > 3 months
